In patent US20140121231A1, “PYRANOPYRIDONE INHIBITORS OF TANKYRASE” (Hoffmann-La Roche, Inc., priority 2012, published 2014):
Counter-ions that a name gives are not always drawn.

Assays:
[1] = molecular target: T1, Tankyrase 1 (TNKS1) (Homo sapiens, UniProt O95271); assay: μHTS-TNKS-IWR2 TR-FRET Binding Assay (Example 71), TNKS1
T1 construct: His6-TNKS1, MW=28.2 KDa (construct: 1088-1327, 1266M)
Protocol: (§1) μHTS-TNKS-IWR2 TR-FRET Binding Assay (10 μL/well in BD1536-well plate, a single point)
(§2) Assay buffer 1a (AB1a) for TNKS dilution: 50 mM Tris, pH 7.4, 100 mM sodium chloride solution, 1 mM magnesium chloride solution, 1 mM DL-dithiothreitol solution, 0.2 mg/mL bovine serum albumin solution, 0.025% NP-40. Assay buffer 1b (AB 1b) for Biotin-IWR2 dilution: 50 mM Tris, pH 7.4, 100 mM sodium chloride solution, 1 mM magnesium chloride solution, 1 mM DL-dithiothreitol solution, 0.2 mg/mL bovine serum albumin solution, 0.05% NP-40 Assay buffer 1c (AB 1c) for compound dilution: 50 mM Tris, pH 7.4, 100 mM sodium chloride solution, 1 mM magnesium chloride solution, 1 mM DL-dithiothreitol solution, 0.2 mg/mL bovine serum albumin solution Assay buffer 2 (AB2) for Eu/APC: 50 mM Tris, pH 7.4, 100 mM sodium chloride solution, 1 mM magnesium chloride solution, 0.2 mg/mL bovine serum albumin solution
(§3) Transfer 3 μL/well of above solution (solution 1,2,3) to an empty assay plate (BD1536-well plate) as follows: TOTAL and cpd wells: Solution 1 (Biotin-IWR2): BLANK wells: Solution 2 (No Biotin-IWR2): POSITIVE CONTROL wells: Solution 3 (Biotin-IWR2XAV939) Transfer 3 μL/well of the above diluted compound solutions or compound dilution buffer to the above assay plate. Add 2 μL/well of 300 nM TNKS stock solution (4) to every well in the above assay plate. Centrifuge the assay plate at 2100 rpm for 2 min. Incubate the assay plate at 26° C. for 30 minutes. Add 2 μL/well 3.5 nMEu/50 nM APC solution (5) to every well in the above assay plate. Centrifuge the assay plate at 2100 rpm for 2 min. Incubate the assay plate at 26° C. for 60 min.

[2] = molecular target: T2, PARP1 (His6-PARP1, full length) (Homo sapiens, UniProt P09874); assay: TR-FRET Binding Assay (Example 71), PARP1; settings: TR-FRET assay of Example 71 with His6-PARP1
T2 construct: His6-PARP1 (full length) can be substituted for His6-TNKS 1
Protocol: as §1
Tankyrase 1 (TNKS1): 184.3 μM=5.2 mg/mL His6-TNKS1, MW=28.2 KDa (construct: 1088-1327, 1266M) in 20 mM Tris pH 8, 150 mM NaCl, 10% glycerol, and 0.5 mM TCEP. Alternatively, His6-tankyrase 2 (construct: 934-1166) (His6-TNKS2) or His6-PARP1 (full length) can be substituted for His6-TNKS 1.
as §2
Prepare Biotinylated IWR2 stock solution (3.33× stock) for TOTL and compound wells: 200 nM Biotin-IWR2 in 5% DMSO/AB1b buffer
Prepare BLANK well stock solution: 5% DMSO/AB1b buffer Prepare POSITIVE CONTROL well stock solution (3.33× stock): 200 nM XAV939 in 200 nM Biotin-IWR2/5% DMSO/AB1b buffer Prepare TNKS1 stock solution (5× stock): 300 nM TNKS in AB1a buffer. (Alternatively, use TNKS2 or PARP1 stock solutions.) Prepare Eu/APC stock solution (5× stock): 3.5 nM Eu-SA/50 nM APC-His6Ab in AB2 buffer.
Add 25 μL/well 1.5% DMSO/AB1c buffer in each compound well to the compound concentration at 74 μM in 8.8% DMSO/AB1c buffer or in the 2 μL DMSO CONTROL wells (BLANK, TOTAL and POSITIVE wells) in the compound plate. Transfer 3 μL/well of above solution (solution 1,2,3) to an empty assay plate (BD1536-well plate) as follows: TOTAL and cpd wells: Solution 1 (Biotin-IWR2): BLANK wells: Solution 2 (No Biotin-IWR2): POSITIVE CONTROL wells: Solution 3 (Biotin-IWR2XAV939) Transfer 3 μL/well of the above diluted compound solutions or compound dilution buffer to the above assay plate. Add 2 μL/well of 300 nM TNKS stock solution (4) to every well in the above assay plate. Centrifuge the assay plate at 2100 rpm for 2 min. Incubate the assay plate at 26° C. for 30 minutes. Add 2 μL/well 3.5 nMEu/50 nM APC solution (5) to every well in the above assay plate. Centrifuge the assay plate at 2100 rpm for 2 min. Incubate the assay plate at 26° C. for 60 min. Read the assay plate immediately at excitation wavelength of 330 nm and emission wavelength of […] in time resolved fluorescence mode.
. Representative compound data for the PARP1 assay is in TABLE 2 (below) Values are in μM.

[3] = molecular target: T3, tankyrase 2 (His6-TNKS2) (Homo sapiens, UniProt Q9H2K2); assay: μHTS-TNKS-IWR2 TR-FRET Binding Assay (Example 71), TNKS2; settings: footnote 1: Tankyrase 1 and 2 inhibition assay in Example 71 (TR-FRET)
T3 construct: His6-tankyrase 2 (construct: 934-1166) (His6-TNKS2)
Protocol: as §1
Biotin-4-((1S,2R,6S,7R)-3,5-Dioxo-4-aza-tricyclo[5.2.1.0*2,6*]dec-8-en-4-yl)-N-(4-methyl-quinolin-8-yl)-benzamide (Biotin-IWR2): 10 mM Biotin-IWR2 stock in DMSO, stored at −20° C. Positive control: 10 mM 2-(4-Trifluoromethyl-phenyl)-3,5,7,8-tetrahydro-thiopyrano[4,3-d]pyrimidin-4-one (XAV939) in DMSO, stored at −20° C.
as §2, §3

T3 sequence (Q9H2K2 934-1166): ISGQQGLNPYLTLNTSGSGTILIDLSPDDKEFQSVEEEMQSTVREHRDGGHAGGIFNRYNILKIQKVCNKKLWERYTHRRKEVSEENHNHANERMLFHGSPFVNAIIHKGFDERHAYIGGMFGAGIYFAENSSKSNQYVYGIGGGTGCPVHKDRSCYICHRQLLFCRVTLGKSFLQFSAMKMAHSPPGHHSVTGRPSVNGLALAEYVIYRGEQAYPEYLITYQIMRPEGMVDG
T2 sequence (P09874 whole entry, species assumed): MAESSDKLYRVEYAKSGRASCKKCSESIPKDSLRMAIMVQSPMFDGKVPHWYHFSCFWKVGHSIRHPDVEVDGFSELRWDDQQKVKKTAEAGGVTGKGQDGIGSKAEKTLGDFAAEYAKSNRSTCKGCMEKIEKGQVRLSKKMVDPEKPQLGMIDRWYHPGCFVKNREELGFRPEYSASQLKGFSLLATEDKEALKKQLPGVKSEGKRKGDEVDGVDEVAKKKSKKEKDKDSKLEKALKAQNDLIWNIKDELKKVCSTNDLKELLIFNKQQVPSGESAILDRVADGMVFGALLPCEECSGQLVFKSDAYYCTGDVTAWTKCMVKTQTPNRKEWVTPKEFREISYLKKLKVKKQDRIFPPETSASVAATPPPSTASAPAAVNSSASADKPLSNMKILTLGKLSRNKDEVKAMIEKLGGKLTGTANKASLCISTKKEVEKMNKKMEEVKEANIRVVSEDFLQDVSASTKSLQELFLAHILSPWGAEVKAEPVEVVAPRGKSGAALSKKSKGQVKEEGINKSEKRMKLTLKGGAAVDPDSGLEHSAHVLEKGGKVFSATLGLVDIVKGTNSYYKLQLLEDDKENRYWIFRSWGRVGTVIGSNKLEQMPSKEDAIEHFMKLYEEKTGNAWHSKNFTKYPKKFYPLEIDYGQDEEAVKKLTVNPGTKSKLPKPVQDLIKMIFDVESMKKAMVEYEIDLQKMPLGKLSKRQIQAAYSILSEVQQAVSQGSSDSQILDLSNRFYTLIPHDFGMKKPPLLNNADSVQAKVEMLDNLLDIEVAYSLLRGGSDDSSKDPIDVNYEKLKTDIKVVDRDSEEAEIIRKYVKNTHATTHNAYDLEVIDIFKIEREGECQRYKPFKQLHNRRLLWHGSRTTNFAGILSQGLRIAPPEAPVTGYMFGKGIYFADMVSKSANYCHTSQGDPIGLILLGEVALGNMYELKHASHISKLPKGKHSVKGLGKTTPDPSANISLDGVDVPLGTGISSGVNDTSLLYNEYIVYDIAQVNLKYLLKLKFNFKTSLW
T1 sequence (O95271 1088-1327): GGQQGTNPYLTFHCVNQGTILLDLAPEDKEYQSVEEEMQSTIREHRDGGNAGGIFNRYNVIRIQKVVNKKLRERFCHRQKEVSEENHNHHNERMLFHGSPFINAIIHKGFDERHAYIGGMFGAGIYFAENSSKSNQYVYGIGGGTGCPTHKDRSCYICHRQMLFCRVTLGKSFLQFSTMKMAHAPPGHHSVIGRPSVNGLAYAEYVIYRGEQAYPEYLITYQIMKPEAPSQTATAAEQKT

| IC50 [1] [nM] | IC50 [2] [nM] | IC50 [3] [nM] | SMILES |
| --- | --- | --- | --- |
| 40.2 | 38.6 | 45.5 | CC1(C(=O)N2CCC(C3Cc4[nH]c(=O)c5cccnc5c4CO3)CC2)CC1 (racemic) [Compound I-57, rac-2-[1-(1-methyl-cyclopropanecarbonyl)-piperidin-4-yl]-1,2,4,10-tetrahydro-3-oxa-5,10-diaza-phenanthren-9-one] |
| 25.9 | 328 | 25.7 | Cc1cncc2c(=O)[nH]c3c(c12)COC(C(C)(C)C)C3 (racemic) [Compound I-58, rac-7-tert-Butyl-4-methyl-5,7,8,9-tetrahydro-6-oxa-2,9-diaza-phenanthren-10-one] |
| 24.1 | 79.7 | 17.9 | Cc1cccc2c(=O)[nH]c3c(c12)COC(C1CCOCC1)C3 (racemic) [Compound I-60, rac-5-Methyl-2-(tetrahydro-pyran-4-yl)-1,2,4,10-tetrahydro-3-oxa-10-aza-phenanthren-9-one] |
| 17.5 | 25.9 | 21 | Cc1cccc2c(=O)[nH]c3c(c12)COC(C1CCN(C(=O)C2(C)CC2)CC1)C3 (racemic) [Compound I-61, rac-5-Methyl-2-[1-(1-methyl-cyclopropanecarbonyl)-piperidin-4-yl]-1,2,4,10-tetrahydro-3-oxa-10-aza-phenanthren-9-one] |
| 26.5 | 38.1 | 23.7 | Cc1cccc2c(=O)[nH]c3c(c12)COC(C1CCN(C(=O)OC(C)(C)C)CC1)C3 (racemic) [Compound I-62, rac-4-(5-Methyl-9-oxo-1,4,9,10-tetrahydro-2H-3-oxa-10-aza-phenanthren-2-yl)-piperidine-1-carboxylic acid tert-butyl ester] |
| 28.3 | 52.6 | 26.9 | Cc1cccc2c(=O)[nH]c3c(c12)COC(C1CCN(C(=O)C2CC2)CC1)C3 (racemic) [Compound I-63, rac-2-(1-Cyclopropanecarbonyl-piperidin-4-yl)-5-methyl-1,2,4,10-tetrahydro-3-oxa-10-aza-phenanthren-9-one] |
| 32 | 44.1 | 36.7 | Cc1cccc2c(=O)[nH]c3c(c12)COC(C(C)(C)O)C3 (racemic) [Compound I-64, rac-2-(1-Hydroxy-1-methyl-ethyl)-5-methyl-1,2,4,10-tetrahydro-3-oxa-10-aza-phenanthren-9-one] |
| 81.4 | 43 | 101 | CC1(C2Cc3[nH]c(=O)c4ccccc4c3CO2)COC1 (racemic) [Compound I-65, rac-2-(3-Methyl-oxetan-3-yl)-1,2,4,10-tetrahydro-3-oxa-10-aza-phenanthren-9-one] |
| 31.5 | 37.1 | 102 | O=c1[nH]c2c(c3ccccc13)CO[C@H](C1CCCC1)C2 (single isomer, unassigned) [Compound I-11] |
| 16 | 30.6 | 19.4 | O=c1[nH]c2c(c3ccccc13)CO[C@@H](C1CCCC1)C2 (single isomer, unassigned) [Compound I-12] |
| 21.4 | 115 | 25.7 | CC(C)(C)OC(=O)N1CCC([C@@H]2Cc3[nH]c(=O)c4ccccc4c3CO2)CC1 (single isomer, unassigned) [Compound I-54] |
| 43.2 | 125 | 99.2 | CC(C)(C)OC(=O)N1CCC([C@H]2Cc3[nH]c(=O)c4ccccc4c3CO2)CC1 (single isomer, unassigned) [Compound I-55] |
| 421 | 281 | 636 | O=c1[nH]c2c(c3ccccc13)COCC2 [Compound I-3, 1,2,4,10-Tetrahydro-3-oxa-10-aza-phenanthren-9-one] |
| 72.9 | 2270 | 144 | O=c1[nH]c2c(c3ccccc13)COC1(CCCC1)C2 [Compound I-9, 1,5′-Dihydrospiro[cyclopentane-1,3′-pyrano[4,3-c]isoquinolin]-6′(4′H)-one] |
| 56.8 | > 50000 | 88.3 | CCC(C)C1Cc2[nH]c(=O)c3ccccc3c2CO1 (stereo not drawn) [Compound I-18, 2-sec-Butyl-1,2,4,10-tetrahydro-3-oxa-10-aza-phenanthren-9-one] |
| 37.9 | 69.9 | 56 | CC(C)(C)OC(=O)N1CCC(C2Cc3[nH]c(=O)c4ccccc4c3CO2)C1 (stereo not drawn) [Compound I-35, 3-(9-Oxo-1,4,9,10-tetrahydro-2H-3-oxa-10-aza-phenanthren-2-yl)-pyrrolidine-1-carboxylic acid tert-butyl ester] |
| 168 | 27.7 | 246 | O=c1[nH]c2c(c3ccccc13)COC(C1CCNC1)C2 (stereo not drawn) [Compound I-36, 2-Pyrrolidin-3-yl-1,2,4,10-tetrahydro-3-oxa-10-aza-phenanthren-9-one, hydrochloride] |
| 49.9 | 104 | 67.4 | CC(=O)N1CCC(C2Cc3[nH]c(=O)c4ccccc4c3CO2)C1 (stereo not drawn) [Compound I-37, 2-(1-Acetyl-pyrrolidin-3-yl)-1,2,4,10-tetrahydro-3-oxa-10-aza-phenanthren-9-one] |
| 42.2 | 67.3 | 65.6 | O=C(C1CC1)N1CCC(C2Cc3[nH]c(=O)c4ccccc4c3CO2)C1 (stereo not drawn) [Compound I-44, 2-(1-Cyclopropanecarbonyl-pyrrolidin-3-yl)-1,2,4,10-tetrahydro-3-oxa-10-aza-phenanthren-9-one] |
| 64.7 | 78.3 | 86.7 | CC1(C(=O)N2CCC(C3Cc4[nH]c(=O)c5ccccc5c4CO3)C2)CC1 (stereo not drawn) [Compound I-45, 2-[1-(1-Methyl-cyclopropanecarbonyl)-pyrrolidin-3-yl]-1,2,4,10-tetrahydro-3-oxa-10-aza-phenanthren-9-one] |
| 39 | 363 | 49.8 | CC(C)(C)OC(=O)N1CCC(C2Cc3[nH]c(=O)c4cccnc4c3CO2)CC1 (stereo not drawn) [Compound I-51, tert-butyl 4-(5-oxo-6 7 8 10-tetrahydropyrano[4 3-h][l 6]naphthyridin-8-yl)piperidine-1-carboxylate] |
| 28 | 26 | 28.7 | Cc1cccc2c(=O)[nH]c3c(c12)COC(C(C)(C)COCc1ccccc1)C3 (stereo not drawn) [Compound I-68, 3-(2-benzyloxy-1 1-dimethyl-ethyl)-10-methyl-1 3 4 5-tetrahydropyrano[4 3-c]isoquinolin-6-one] |
